These results are taken from patent US20240261412A1, “NUTRACEUTICAL COMPOSITION FOR DELIVERY OF HYDROPHILIC AND HYDROPHOBIC BIOACTIVE SUBSTANCES” (AKAY NATURAL INGREDIENTS PRIVATE LIMITED, priority 2021, published 2024).

Data set [1] can be described thus: In vitro release kinetics of trans-resveratrol formulation (USP dissolution apparatus). Type of data set: physicochemical. The note with it: pH 6.5 and 2, FIG. 2. How it is done: Briefly, a 50 mg of RF-20 was dispersed in a 10 mL solution of appropriate pH and kept under constant stirring at 37±0.5° C. […] The amount of resveratrol content in the solution was determined by HPLC, with the help of a calibration curve. The experiment was performed in triplicate and the mean cumulative percentage of released resveratrol was calculated and plotted against time to follow the release kinetics.

Data set [2] is described as follows: Pharmacokinetics study of resveratrol, randomized double-blinded crossover, capsules and sachets. The format is in vivo, human. To be noted: for Tmax: human, plasma, read-out: Free Resveratrol Tmax. How it is done: The bioavailability study in human subjects was carried out in two phases. In the first phase, identical hard shell gelatin capsules of either the trans-resveratrol powder formulation obtained in example 1 (RF-20) or unformulated resveratrol (U-tRES) containing 80 mg of trans-resveratrol were provided. […] The unformulated capsule contained 80±5 mg of trans-resveratrol with 98.2% purity isolated from Japanese Knotweed (U-tRES) by an ethanol/water extraction process and about 300 mg of microcrystalline cellulose as an excipient. In the second phase, the same dose of either the trans-resveratrol powder formulation or the unformulated resveratrol was administered in identical stick packs, each weighing about 3 g. Maltodextrin was used as an additive to make up the sachet packs to 3 g and the participants were asked to drink one sachet with about 240 mL of water. The double-blinded, placebo-controlled, randomized pharmacokinetic study was conducted using both capsules and sachets, to investigate the influence of delivery form on the relative bioavailability of trans-resveratrol from RF-20 and U-tRES. Each dose of either the resveratrol powder formulation or the unformulated resveratrol delivered 80±5 mg of trans-resveratrol. […] The blood samples were analysed by tandem mass spectrometry using QTRAP technology to detect, confirm and quantify ‘free’ resveratrol content in biomatrices.

Data set [3] can be described thus: Pharmacokinetics of fisetin powder formulation in healthy human subjects. The format is in vivo. The note with it: human plasma. How it is done:
The bioavailability of the fisetin formulation was evaluated in healthy human subjects. It has been evaluated in a single dose, randomized, comparative, double-blinded crossover design was adopted to evaluate the difference in the bioavailability and pharmacokinetic parameters (Cmax, AUC, Tmax, and t½) of free (unconjugated) fisetin and geraldol following the oral administration of a fisetin formulation obtained in example 6 (FF-20) and unformulated fisetin (UF). The participants were provided with a capsule contained 500±25 mg of UF or FF-20. Around 50 mg of microcrystalline cellulose was present in each capsule as a flow-improving excipient. Following administration, blood samples (2 mL) were collected 5 min (t0) prior to oral dosing and subsequently at 0.5, 1, 2, 3, 5, 8, and 12 h after oral ingestion of UF or FF-20, using an indwelling venous cannula. Participants were provided with a standardized breakfast, lunch, snack, and dinner respectively at 1, 4, 8, and 12 h after dosing. Plasma was separated by centrifugation at 11,950×g for 10 min at 4° C. and stored for a maximum of two days at −20° C. for analysis. Fisetin and geraldol in plasma samples were extracted and subjected to UPLC-ESI-MS/MS analyses.

The nature of data set [4]: In vitro release kinetics of calcium ascorbate formulation. Type of data set: physicochemical. To be noted: stomach and intestinal pH conditions, FIG. 5. How it is done: The in vitro release of ascorbic acid from the calcium ascorbate powder formulation was determined in water containing 1.6 mmol of the disodium salt of EDTA (ethylenediamine tetra acetic acid) at pH 2.0 and 6.8 using 0.1 M HCl and phosphate buffer respectively. 500 mg of calcium ascorbate powder formulation was mixed with 500 mL of EDTA solution to obtain the calcium ascorbate solution. The pH of the calcium ascorbate solution was adjusted and agitated at 100 rpm. About 1 mL of the solution was carefully withdrawn at regular intervals of 0, 1, 2, 4, 6, and 8 h and made up to 100 mL with water. The ascorbate content was then analysed by HPLC method. Analysis was performed in triplicate and the mean cumulative percentage of released ascorbate was calculated and plotted against time to study the in vitro release kinetics of CAAS from the fenugreek galactomannan matrix.

Data set [5] can be described thus: Pharmacokinetics of calcium ascorbate formulation in healthy volunteers. The note with it: single oral dose of 1000 mg. Type of data set: in vivo, human. The source says: The relative bioavailability of the calcium ascorbate formulation obtained in Example 5 (FC+) with respect to the unformulated CAAS (UF-CAAS) powder with >98% purity was investigated in healthy volunteers.
The study was designed as a randomized, double-blinded, single dose study on healthy volunteers. Healthy volunteers (males and females) (n ¼14) aged 18 to 65 years having BMI between 18-25 kgm^−2 were enrolled for the study. Those who were having a history of gut disorders such as irritable bowel syndrome, ulcerative colitis, gastro-oesophageal reflux.
Selected participants were randomized into one of the three treatment arms consisting of three single dose treatments, with either formulated (tablets and capsules) or unformulated (UFCAAS) tablets.
Tablets and hard-shell two-piece hypromellose capsules of both FC+ and UF-CAAS were prepared in such a way that each tablet weighs about 1000±25 mg and each capsule contains 500±25 mg with similar content of CAAS. The study participants were orally administered with a single dose of 1000 mg tablet or capsule as per the study protocol, along with 200±10 mL of normal drinking water.
The quantification of calcium ascorbate in plasma was carried out by a validated HPLC method.

Setting [6] is: human plasma, capsule, 80 mg trans-resveratrol per dose.
Where [7] appears, read: human plasma, sachet, 80 mg trans-resveratrol per dose.

Values joined by “and” are separate entries in the source; they are usually repeats but may differ in a detail not shown here. Equal entries are not always repeated.

Regarding `Oc1ccc(/C=C/c2cc(O)cc(O)c2)cc1` [U-tRES, trans-resveratrol], the “solubility in release medium” value in data set [1] is “insoluble”. The Tmax – broadly, the time at which the peak concentration occurs – worked out at 1.07 ± 0.26 h in data set [2] (both sexes, oral, 80 mg, human plasma, capsule, 80 mg trans-resveratrol per dose) and 1.21 ± 0.42 h in data set [2] (both sexes, oral, 80 mg, human plasma, sachet, 80 mg trans-resveratrol per dose). Further, in data set [2] (both sexes, oral, human plasma, sachet, 80 mg trans-resveratrol per dose, read-out: Free Resveratrol t1/2 (converted)), the half-life was 1.58 ± 0.65 h. Besides, the “time after which plasma levels were undetectable” value in data set [2] (free resveratrol, sachet) worked out at 3 h. Besides, in data set [2] (human plasma, capsule, 80 mg), the “free resveratrol AUC0-24 h” value was determined as 32.05 ± 9.97 ng·h/mL. Further, the “Free Resveratrol AUC0-24” value worked out at 32.05 ng·h/mL in data set [2] (setting [6]) and 31.93 ng·h/mL in data set [2] (setting [7]). Moreover, the “Free Resveratrol Cmax” value in data set [2] (setting [6]) is 16.34 ng/mL; in data set [2] (human plasma, capsule, 80 mg trans-resveratrol per dose, listed as UtRES), 16.34 ± 5.67 ng/mL; in data set [2] (setting [7]) it was 15.07 ± 5.10 ng/mL and 15.07 ng/mL. For the same compound, the “Free Resveratrol t1/2” value in data set [2] (setting [6]) is listed as 1.58 h. The “tolerability (side effects or adverse events)” value in data set [2] (n=16, both phases, 80±5 mg trans-resveratrol per dose) is reported as “without any significant side effects or adverse events”.

For the compound `O=c1c(O)c(-c2ccc(O)c(O)c2)oc2cc(O)ccc12` [UF, fisetin], in data set [3] (500 mg, single oral dose), the Tmax came to 0.88 h. Moreover, in data set [3] (500 mg, single oral dose, normalized for the higher fisetin intake in UF), the highest level (Cmax) was 9.97 ng/mL. In addition, the AUC(0-t) in data set [3] (500 mg, single oral dose, normalized for the higher fisetin intake in UF, read-out: Fisetin AUC0-12) came to 12.7 ng·h/mL. The half-life in data set [3] (500 mg, single oral dose, read-out: Fisetin t1/2 (converted)) was 1.14 h. In addition, in data set [3], the “time after dosing up to which fisetin levels were quantifiable” value was 2 h.

Regarding calcium ascorbate [UF-CAAS], in data set [4], the “in vitro release behaviour” value is on record as “sustained release”. Besides, in data set [5], the “AUC (plasma ascorbate)” value is 311.4 ± 63.87^ μM · h/mL, the “MRT (plasma ascorbate)” value stood at 22.67 ± 2.02 h, the “T1/2 (plasma ascorbate)” value came to 3.6 h and the “Tmax (plasma ascorbate)” value is given as 1 h. Further, in data set [5] (read-out: Cmax (plasma ascorbate)), the Cmax (usually the peak of the concentration-time curve) worked out at 51.7 ± 21 µM.
